Laboratory results published in US12059464B2, “Combination therapy involving antibodies against Claudin 18.2 for treatment of cancer” (Astellas Pharma Inc., priority 2012, dated 2024).

Columns and labels:
[1] = tested on: KatoIII cells; experiment: Cell cycle analysis and CLDN18.2 surface expression of KatoIII cells cultivated with cytostatic compounds; conditions: for cell cycle arrest (phase of the cell cycle): KatoIII cells cultivated with cytostatic compound, DNA content by flow cytometry; for CLDN18.2 expression: KatoIII cells, cultivation for 96 hours
Method: Epirubicin (Pfizer) was tested at a concentration of 10 or 100 ng/ml, 5-FU (Neofluor from NeoCorp AG) was tested at a concentration of 10 or 100 ng/ml, and oxaliplatin (Hospira) was tested at a concentration of 50 or 500 ng/ml.
As secondary reagent goat-anti-huIgG-APC from Dianova was used.
Cell cycle stages were determined based on measurement of cellular DNA content. […] Cell cycle analysis was done using the CycleTEST PLUS DNA Reagent Kit from BD Biosciences following the manufacturer's protocol. Flow cytometry acquisition and analysis were performed by using BD FACS CantoII (BD Biosciences) and FlowJo (Tree Star) software.

[2] = tested on: KatoIII cells; experiment: IMAB362-induced ADCC (luciferase) on KatoIII cells pretreated with Irinotecan, Docetaxel or Cisplatin; type: cell-based, human; conditions: KatoIII pretreated for 3 days; for level of viable cells compared to medium cultivated target cells: Irinotecan 1000 ng/ml, Docetaxel 5 ng/ml, Cisplatin 2000 ng/ml; for effect of pretreatment on potency of IMAB362 to induce ADCC: human PBMC effectors
Method: Peripheral blood mononuclear cells (PBMCs) including NK cells, monocytes, mononuclear cells or other effector cells from healthy human donors were purified by Ficoll Hypaque density centrifugation. Washed effector cells were seeded in X-Vivo medium. KatoIII cells which express CLDN18.2 endogenously and are of gastric origin were used as target cells in this setting. Target cells stably expressed luciferase, lucifer yellow, which is oxidized by viable cells only.

[3] = tested on: KatoIII cells; experiment: KatoIII cells pretreated with Irinotecan or Docetaxel: cell growth and cell cycle arrest; type: cell-based, human; conditions: KatoIII cells pretreated for 4 days
Method: Cell cycle stages were determined based on measurement of cellular DNA content. This allows one to discriminate between cells in the G1-, S- or G2-phase of the cell cycle. In the S-phase DNA duplication occurs whereas in the G2-phase cells grow and prepare for mitosis. Cell cycle analysis was done using the CycleTEST PLUS DNA Reagent Kit from BD Biosciences following the manufacturer's protocol. Flow cytometry acquisition and analysis were performed by using BD FACS CantoII (BD Biosciences) and FlowJo (Tree Star) software.
KatoIII cells were pretreated for 4 days with Irinotecan or Docetaxel and analysed for CLDN18.2 expression and cell cycle arrest.

[4] = tested on: PBMCs; experiment: Expansion of PBMC cultures with ZA/IL-2; type: cell-based, human; conditions: 14 days, 300 U/ml IL-2
Method: PBMCs were harvested from healthy human donors and cultures were treated with a single dose of ZA. […] FIG. 8a. […] FIG. 8b. Increase in cell numbers was determined by counting living cells on day 6, 8, 11 and 14.

[5] = tested on: CLS103 cells
Method: (§1) Furthermore, human stomach cancer cells (NUGC-4-luciferase) and murine stomach cancer cells (CLS103-calcein stained) were pretreated with or w/o 5 μM ZA for 2 days. Human Vγ9Vδ2 T cells were MACS purified (day 14) and co-cultured with the cancer cells for 24 h. Cytotoxicity of Vγ9Vδ2 T cells towards non-treated and ZA-treated target cells was determined by measuring remaining luciferase activity or calcein fluorescence; cf. FIG. 11b. Target cells (NUGC-4 and CLS103) were pretreated with or w/o 5 μM ZA for 2 days and subsequently incubated for 4 h with mitomycin c ([…]) to stop proliferation. MACS purified human 14d old resting Vγ9Vδ2 T cells and ^3H-thymidine were added to the target cells and co-cultures were incubated for 48 h at 37° C. Proliferation was determined by measuring ^3H thymidine incorporation in the DNA using a MicroBeta scintillation counter. Proliferation of target cells not treated with ZA and w/o Vγ9Vδ2 T cells was set to 100%; cf. FIG. 11c.

[6] = tested on: Vγ9Vδ2 T cells; experiment: Enrichment of Vγ9Vδ2 T cells in co-culture with monocytes ± ZA; type: cell-based, human; conditions: co-cultures 14 days, ±1 μM ZA
Method: The enrichment of Vγ9Vδ2 T cells in the co-cultures after 14 days was determined by multicolor FACS, whereas the expansion of the culture was considered in the calculation. The enrichment factor of Vγ9Vδ2 T cells cultured with monocytes in a 1:4 ratio was set to 100% for each experiment. […] This effect was clearly ZA-dependent; cf. FIG. 11a.

[7] = tested on: NUGC-4 cells; type: cell-based, human
Method: as §1

[8] = tested on: HEK293~CLDN18.2 transfectants; experiment: Early treatment of HEK293~CLDN18.2 tumor xenografts; type: in vivo, nude mice; conditions: isotype control, 200 μg twice per week for 6 weeks
Source text: Moreover, advanced tumor treatment experiments were initiated up to 9 days after tumor cell inoculation when tumors had reached volumes of about 60-120 mm^3.
Nude mice were subcutaneously inoculated with 1×10^7 HEK293˜CLDN18.2 transfectants. Treatment of 10 mice per group started 3 days after tumor inoculation. […] Not only time to death was prolonged, but 4 of 10 mice survived the entire observation period of 210 days.

[9] = tested on: NUGC-4 xenografts; experiment: In vivo tumor targeting of Dyelight 680-labeled antibodies (fluorescence imaging); design: species or system nude mice; conditions: time not stated

Molecule | cell cycle arrest (phase of the cell cycle) [1] | claudin18.2 expression compared to medium cultivated cells [2] | level of viable cells compared to medium cultivated target cells [2] | effect of pretreatment on potency of IMAB362 to induce ADCC [2] | other results
O=c1[nH]cc(F)c(=O)[nH]1 [5-FU, 5-fluoro-1H-pyrimidine-2,4-dione] | blocked predominantly in the S-phase |  |  |  | CLDN18.2 expression [1]: stabilize CLDN18.2-expression
N.N.[Cl][Pt][Cl] [Cisplatin, cis-diamminedichloroplatinum(II)] |  | increased | lower level of viable cells | augmented the potency of IMAB362 to induce ADCC | 
CC(=O)O[C@@]12CO[C@@H]1C[C@H](O)[C@@]1(C)C(=O)[C@H](O)C3=C(C)[C@@H](OC(=O)[C@H](O)[C@@H](NC(=O)OC(C)(C)C)c4ccccc4)C[C@@](O)([C@@H](OC(=O)c4ccccc4)[C@H]21)C3(C)C [Docetaxel, docetaxel] |  | increased | lower level of viable cells | augmented the potency of IMAB362 to induce ADCC | cell cycle arrest (phase) [3]: cell cycle arrest in the G2-phase; inhibition of cell growth [3]: dose dependent inhibition of cell growth
COc1cccc2c1C(=O)c1c(O)c3c(c(O)c1C2=O)C[C@@](O)(C(=O)CO)C[C@@H]3O[C@H]1C[C@H](N)[C@@H](O)[C@H](C)O1 [Epirubicin] | cell cycle arrest predominantly in the G2-phase |  |  |  | CLDN18.2 expression [1]: stabilize CLDN18.2-expression
CCc1c2c(nc3ccc(OC(=O)N4CCC(N5CCCCC5)CC4)cc13)-c1cc3c(c(=O)n1C2)COC(=O)[C@]3(O)CC [Irinotecan, (S)-4,11-diethyl-3,4,12,14-tetrahydro-4-hydroxy-3,14-dioxo1H-pyrano[3′,4′:6,7]-indolizino[1,2-b]quinolin-9-yl-[1,4′bipiperidine]-1′-carboxylate] |  | increased | lower level of viable cells | augmented the potency of IMAB362 to induce ADCC | cell cycle arrest (phase) [3]: cell cycle arrest in the S/G2-phase; inhibition of cell growth [3]: dose dependent inhibition of cell growth
O=C1[O][Pt]2([NH][C@@H]3CCCC[C@H]3[NH]2)[O]C1=O [Oxaliplatin, [(1R,2R)-cyclohexane-1,2-diamine](ethanedioato-O,O′)platinum(II)] | enrichment of cells predominantly in the G1- and G2-phases |  |  |  | 
O=P(O)(O)C(O)(Cn1ccnc1)P(=O)(O)O [ZA, [1-hydroxy-2-(1H-imidazol-1-yl)ethane-1,1-diyl]bis(phosphonic acid)] |  |  |  |  | lower expansion of cells in medium without ZA versus with ZA [4]: about 2 fold; activation of Vγ9Vδ2 T cells (cytotoxicity and proliferation) by ZA-pulsed cancer cells [5]: failed to elicit these effects; enrichment of Vγ9Vδ2 T cells with increase of monocytes in the culture (ZA-dependent) [6]: more than 10 fold; activation of Vγ9Vδ2 T cell cytotoxicity by ZA-pulsed cancer cells [7]: 5-10 fold
infliximab: isotype control antibody [reference compound] |  |  |  |  | time within which all mice died [8]: 70 to 80 days
rituximab: Dyelight 680-labeled negative control antibody (NUGC-4 negative for CD20) [reference compound] |  |  |  |  | signal of labeled antibody (negative control, NUGC-4 negative for CD20) [9]: No signal is detected
